Earlier results in patent US10603272B2, “Stimulation of appetite and treatment of anorexia in dogs and cats” (Kindred Biosciences, Inc., priority 2015, dated 2020).

In the case of CN1CCN2c3ncccc3Cc3ccccc3C2C1 (stereo not shown) [mirtazapine], the solubility in water is listed as “insoluble in water”.
